Test results: patent US20240309015A1, “Methods for the Treatment of Fibrotic Disease” (SHY Therapeutics, LLC, priority 2021, published 2024)

Experiments:
TNFα = assay: Mouse TNF Alpha Quantification Assay (LPS-stimulated RAW 264.7); assay type: cell-based; parameters: dose or concentration left out as unconfirmed; details: RAW264.7, ELISA, read-out: TNFα: % inh.
KRas G12C mutant = assay: Ras GTP Binding Domain Inhibition Assay, KRas G12C mutant; details: at 20 μM; for KRas G12C mutant + SOS: % inh.: with SOS; for KRas G12C mutant: % inh.: without SOS
Description: (§1) A Ras Superfamily Activity Assay (as disclosed in International Application No. PCT/US2018/038613, filed Jun. 20, 2018, which is incorporated by reference in its entirety) was used as a specific assay to evaluate compounds against the following for the following Ras Superfamily proteins: KRas wild type, KRas Q61H mutant, KRas G12C mutant, KRas G12D mutant, Rac-1, and Rho-A.
(§2) Buffer-I: • 25 mM Tris-HCl, pH 7.4 • 27 mM KCl • 137 mM NaCl • 1 mM MgCl2 • 1 mM DTT
(§3) Buffer-IL: • 50 mM Tris-HCl, pH 7.0 • 1 mM MgCl2 • 1 mM DTT
(§4) The small GTPases proteins: KRas wild type. KRas Q61H mutant, KRas G12C mutant, KRas G12D mutants, Rac-1, and Rho-A were expressed as His-tagged proteins. In addition, the Guanosine nucleotide Exchange Factor (GEF) Sos protein (residues 556-1049) was expressed as a His-tagged protein. In cells, the guanine nucleotide exchange factor Sos protein promotes activation of Ras proteins by stimulating an exchange of GDP for GTP. The inclusion of Sos to the Ras GTP binding domain inhibition assay may be considered as an alternative representation of physiological cellular conditions for evaluating the inhibitory activity of some of the tested small molecules.
(§5) For the assay, all purified small GTPases proteins were diluted in Buffer-I or Buffer-II to a final concentration of 10-30 μg/mL. 200 μL of each diluted protein was added to a nickel-coated 96-well plate and incubated overnight at 4° C. Then the protein solution was discarded and 200 μL of Buffer-I or Buffer-II was added to each well in the presence of 1% DMSO. Compounds to be tested were added to the protein-coated wells at final concentration of 20 μM, and incubated for 3 hours at room temperature with and without 10-30 μg/mL of Sos added to the final hour of the incubation. When performing IC50 measurements a serial dilution of all tested concentrations was added. Then Cy3-GTP or Cy5-GTP was added to each well to a final concentration of 100 nM. The labeled GTP was incubated for 45 minutes at room temperature. Following GTP incubation, wells were washed 3× in Buffer-I or Buffer-II and 200 μL of Buffer-I or Buffer-II was added to each well. Following washes, the amount of bound labeled-GTP was measured using a SpectraMax M3 (Molecular Devices).

Rho-A = assay: Ras GTP Binding Domain Inhibition Assay, Rho-A; details: at 20 μM; without SOS
Description: as §1, §2, §3, §4, §5

KRas wild type = assay: Ras GTP Binding Domain Inhibition Assay, KRas wild type; details: at 20 μM; for KRas wild type + SOS: % inh.: with SOS; for KRas wild type: % inh.: without SOS
Description: as §1, §2, §3, §4, §5

IL-6 = assay: Mouse IL6 Quantification Assay (LPS-stimulated RAW 264.7); assay type: cell-based; parameters: dose or concentration left out as unconfirmed; details: RAW264.7, ELISA, read-out: IL-6: % inh.
KRas G12D mutant = assay: Ras GTP Binding Domain Inhibition Assay, KRas G12D mutant; details: at 20 μM; for KRas G12D mutant + SOS: % inh.: with SOS; for KRas G12D mutant: % inh.: without SOS
Description: as §1, §2, §3, §4, §5

KRas G12C mutant + SOS: % inh. (KRas G12C mutant)	KRas G12C mutant: % inh. (KRas G12C mutant)	Rho-A: % inh. (Rho-A)	KRas wild type + SOS: % inh. (KRas wild type)	KRas wild type: % inh. (KRas wild type)	KRas G12D mutant + SOS: % inh. (KRas G12D mutant; Table 7)	KRas G12D mutant + SOS: % inh. (KRas G12D mutant; Table 8)	KRas G12D mutant: % inh. (KRas G12D mutant; Table 7)	KRas G12D mutant: % inh. (KRas G12D mutant; Table 8)	SMILES	inhibition (TNFα) [%]	inhibition (IL-6) [%]
D (D = 76-100% inhibition)	C (C = 46-75% inhibition)	D (D = 76-100% inhibition)	D (D = 76-100% inhibition)	D (D = 76-100% inhibition)	D (D = 76-100% inhibition)	D (D = 76-100% inhibition)	D (D = 76-100% inhibition)	D (D = 76-100% inhibition)	COCC1CN(c2nc(-c3nccn3C)nc3sc(-c4ccn(C(C)C)n4)c(C)c23)CCO1 (racemic) [Compound 15, rac-4-(6-(1-Isopropyl-1H-pyrazol-3-yl)-5-methyl-2-(1-methyl-1H-imidazol-2-yl)thieno[2,3-d]pyrimidin-4-yl)-2-(methoxymethyl)morpholine]	76 to 100	46 to 75
D (D = 76-100% inhibition)	D (D = 76-100% inhibition)	C (C = 46-75% inhibition)	D (D = 76-100% inhibition)	D (D = 76-100% inhibition)	D (D = 76-100% inhibition)	D (D = 76-100% inhibition)	D (D = 76-100% inhibition)	D (D = 76-100% inhibition)	COCCO[C@H]1CC[C@@H](Nc2nc(-c3nccn3C)nc3sc(-c4ccn(C(C)C)n4)c(C)c23)C1 (racemic) [Compound 20, rac-6-(1-Isopropyl-1H-pyrazol-3-yl)-N-((1R,3S)-3-(2-methoxyethoxy)cyclopentyl)-5-methyl-2-(1-methyl-1H-imidazol-2-yl)thieno[2,3-d]pyrimidin-4-amine]	46 to 75	76 to 100
D (D = 76-100% inhibition)	D (D = 76-100% inhibition)	C (C = 46-75% inhibition)	D (D = 76-100% inhibition)	D (D = 76-100% inhibition)	D (D = 76-100% inhibition)	D (D = 76-100% inhibition)	C (C = 46-75% inhibition)	C (C = 46-75% inhibition)	COCC1(OC)CCN(c2nc(-c3nccn3C)nc3sc(-c4ccn(C(C)C)n4)c(C)c23)C1 (racemic) [Compound 27, rac-6-(1-Isopropyl-1H-pyrazol-3-yl)-4-(3-methoxy-3-(methoxymethyl)pyrrolidin-1-yl)-5-methyl-2-(1-methyl-1H-imidazol-2-yl)thieno[2,3-d]pyrimidine]	76 to 100	76 to 100
D (D = 76-100% inhibition)	D (D = 76-100% inhibition)	C (C = 46-75% inhibition)	D (D = 76-100% inhibition)	D (D = 76-100% inhibition)	D (D = 76-100% inhibition)	D (D = 76-100% inhibition)	C (C = 46-75% inhibition)	C (C = 46-75% inhibition)	COCCn1ccc(-c2sc3nc(-c4nccn4C)nc(N[C@@H]4CC[C@H](OC)C4)c3c2C)n1 (racemic) [Compound 39, rac-N-((1R,3S)-3-Methoxycyclopentyl)-6-(1-(2-methoxyethyl)-1H-pyrazol-3-yl)-5-methyl-2-(1-methyl-1H-imidazol-2-yl)thieno[2,3-d]pyrimidin-4-amine]	0	26 to 45
–	–	–	–	–	–	–	–	–	CO[C@H]1CNC[C@@H](Nc2nc(-c3nccn3C)nc3sc(-c4ccn(C(C)C)n4)cc23)C1 [Compound 28, 6-(1-Isopropyl-1H-pyrazol-3-yl)-N-((3S,5R)-5-methoxypiperidin-3-yl)-2-(1-methyl-1H-imidazol-2-yl)thieno[2,3-d]pyrimidin-4-amine]	46 to 75	76 to 100
